Measured values as given in US20110052725A1, “THERAPEUTIC AGENT FOR INFECTIOUS SKIN AND MUCOSAL DISEASE” (priority 2007, published 2011).
Marks after values point to notes of the source that are not given here.

Experiments:
[1] = test system: herpesvirus type 2 (HSV2 UF-strain); assay: Antiviral activity against herpesvirus type 2 (TCID50); type: cell-based
Experimental: (§1) Each of the agents was diluted with sterile distilled water, to thereby prepare a dilution series of 1,250 ppm, 125 ppm, 12.5 ppm, 1.25 ppm and 0.125 ppm.
(§2) In order to neutralize chlorine dioxide in the agent, a 0.0025M sodium thiosulfate solution was prepared using Eagle MEM, and sterilized by filtration using a 0.22 μm membrane filter.
(§3) To each of the various concentrations of the agents (240 μl) was added virus (60 μl) and stirred, to thereby sensitize the virus with the agent, for 15, 30, 60, 120 or 180 seconds. Forty μl of virus from each reaction liquid was added to a 0.0025M sodium thiosulfate solution (360 μl), to thereby neutralize chlorine dioxide. As a virus control, one diluted with distilled water, instead of the agent, was used.
(§4) Each of the agent-treated virus liquid and the control virus liquid diluted with distilled water was neutralized with a 0.0025M sodium thiosulfate solution, and then neutralized virus (100 μl) was diluted with Eagle MEM (900 μl), to obtain a 10-fold dilution series of the treated virus.
(§5) CRFK cell (50 μl/well) was incubated in a 96-well microplate for 3 days, and the diluted virus was inoculated therein (50 μl/well, 4 well/dilution). Each cell was cultured in a CO2 incubator at 37° C. for 5 days, and CPE was observed. TCID50 was calculated based on the above-mentioned equation 1 (Kerber's formula).
The antiviral activity against herpesvirus type 2 (HSV-2, Herpes simplex virus type 2) (virus which causes mainly genital herpes, neonatal herpes, herpetic meningitis and herpetic myelitis) was measured. Substantially the same test as in Example 10 was performed, except that the herpesvirus type 2 (standard strain; UF strain) was used instead of the herpesvirus type 1.

[2] = test system: herpesvirus type 1 (HSV1 kos); assay: Antiviral activity against herpesvirus type 1 (TCID50, CRFK cell); type: cell-based
Experimental: An antiviral activity against herpesvirus type 1 (HSV-1, Herpes simplex virus type 1) (virus which causes mainly herpes labialis, and also causes herpetic stomatitis, herpetic keratitis and herpes simplex encephalitis) was measured. The method will be described below.
Five-hundred ml of a culture solution of virus (herpesvirus type 1 kos) which had been cultured with CRFK cell (feline kidney cell) was centrifuged at 3,000 rpm for 3 hours, and to the sediment was added 4 ml of distilled water to thereby prepare a viral suspension. The viral suspension was sterilized by filtration using a 0.45 μm membrane filter, and cryopreserved at −80° C. until its usage.
as §1, §2, §3, §4, §5

SMILES: OCl [Sodium hypochlorite]
- Viral infectivity titer TCID50 ([1]; 0.1 ppm, agent sensitized time 0 second): 4.25 TCID50/50 μL unit (10^n)
- Viral infectivity titer TCID50 ([1]; 0.1 ppm, agent sensitized time 30 second): 4.25 TCID50/50 μL unit (10^n)
- Viral infectivity titer TCID50 ([1]; 0.1 ppm, agent sensitized time 60 second): 4.25 TCID50/50 μL unit (10^n)
- Viral infectivity titer TCID50 ([1]; 0.1 ppm, agent sensitized time 120 second): 4.25 TCID50/50 μL unit (10^n)
- Viral infectivity titer TCID50 ([1]; 1 ppm, agent sensitized time 0 second): 4.25 TCID50/50 μL unit (10^n)
- Viral infectivity titer TCID50 ([1]; 1 ppm, agent sensitized time 30 second): 4 TCID50/50 μL unit (10^n)
- Viral infectivity titer TCID50 ([1]; 1 ppm, agent sensitized time 60 second): 3.75 TCID50/50 μL unit (10^n)
- Viral infectivity titer TCID50 ([1]; 1 ppm, agent sensitized time 120 second): 3.75 TCID50/50 μL unit (10^n)
- Viral infectivity titer TCID50 ([1]; 10 ppm, agent sensitized time 0 second): 4.25 TCID50/50 μL unit (10^n)
- Viral infectivity titer TCID50 ([1]; 10 ppm, agent sensitized time 30 second): 0 TCID50/50 μL unit (10^n)
- Viral infectivity titer TCID50 ([1]; 10 ppm, agent sensitized time 60 second): 0 TCID50/50 μL unit (10^n)
- Viral infectivity titer TCID50 ([1]; 10 ppm, agent sensitized time 120 second): 0 TCID50/50 μL unit (10^n)
- Reduction of viral infectivity titer ([2]; 1 ppm or less): apparent reduction of the infectivity titer was not observed
- Reduction of viral infectivity titer ([2]; 10 ppm, 180 seconds): ≤ 1 log
- Reduction of viral infectivity titer ([2]; discussion, compared with chlorine dioxide 10 ppm for 15 seconds): apparent reduction of the infectivity titer was not observed
